Experiments:
cAMP PDE = assay: Enzyme inhibitory activity, cAMP PDE (crude enzymatic solution from rat brains); assay type: biochemical; conditions: for IC50: 14C-labeled cAMP substrate 0.14 μmoles, pH 8.0, 30° C., 20 minutes, read-out: I50 (50% inhibition value); for potency relative to papaverine: ratio to papaverine
Procedure: The enzyme inhibitory activity of dihydrodesoxygriseolic acid was measured, as was that of griseolic acid itself and that of the known cAMP PDE inhibitor, papaverine, for purposes of comparison.
The test was carried out following essentially the method of A. L. Pichard and Y. U. Chung [Journal of Biological Chemistry, 251, 5726-5737 (1976)]. A crude enzymatic solution derived from rat brains was used as the source of cAMP PDE.
^14 C-labeled cAMP was used as the substrate. It was employed in a 0.2M Tris-hydrochloric acid buffer solution (pH 8.0) in an amount sufficient to provide a final concentration of 0.14 μmoles. "Tris" is tris(hydroxymethyl)aminomethane. The substrate solution was mixed with an appropriate amount of the compound under test dissolved in 2-5 μl of dimethyl sulfoxide and with 20 μl of a snake venom solution and 40 μl of the crude enzyme solution. Sufficient Tris-hydrochloric acid buffer was added to make a total volume of 100 μl. The mixture was allowed to react at 30° C. for 20 minutes. At the end of this time, the reaction mixture was treated with an Amberlite (trademark) IRP-58 resin and the level of residual adenosine radioactivity in the product was determined.
The results are shown in the following Table 1, in which the I50 values are given in μmoles.

[1] = test system: male mice of the ddY strain; assay: Acute toxicity, intravenous, mice; conditions: in words, from Table 2
Source text: The compounds under test were griseolic acid and dihydrodesoxygriseolic acid. The test animals were male mice of the ddY strain, 5 weeks of age and weighing 24.25 g. The mice were employed in groups of 3 or 5 animals for each test.
Administration was intravenous.
The results are reported in Table 2, in the form "a/b", where "a" is the number of deceased animals in the test group at the end of the test and "b" is the total number of animals in the relevant test group.

[2] = Water solubility (stated in words); assay type: physicochemical

Compound	IC50 (cAMP PDE)	inhibitory activity compared with griseolic acid (cAMP PDE; in words, from Table 1)	potency relative to papaverine (cAMP PDE; from Table 1)	toxicity compared with griseolic acid [1]	water solubility [2]
Nc1ncnc2c1ncn2C1OC2CC(CC(=O)O)(C(=O)O)OC2C1O (centres unmarked) [dihydrodesoxygriseolic acid]	120 nM	comparable with that of griseolic acid	about 20 times	substantially less toxic than griseolic acid	water-soluble
Nc1ncnc2c1ncn2[C@@H]1OC2=C[C@@](C(=O)O)(C(O)C(=O)O)O[C@H]2[C@H]1O (some centres unmarked) [griseolic acid]	160 nM	–	about 20 times	–	–
COc1ccc(Cc2nccc3cc(OC)c(OC)cc23)cc1OC [papaverine, reference compound]	3500 nM	–	–	–	–
